According to a melting point compilation (Tetko et al.):

Compound	melting point [°C]
COc1ccc(C(=O)Cn2cc([N+](=O)[O-])nc2C)cc1	250 to 252
C(=C(c1ccccc1)c1ccccc1)c1ccccc1	72.5
Cc1nc(/C(C#N)=C/c2ccco2)sc1/N=N/c1c(Cl)cc(Cl)cc1Cl	156
O=[N+]([O-])c1cc(Cl)c(Cl)cc1Nc1ccccn1	156
CC1=NN(c2ccccc2)C(=O)/C1=C\c1ccccc1O	153 to 154
O=C1OC(=O)c2cc(F)ccc21	75 to 78
O=[N+]([O-])c1ccc(Oc2ccccc2)c([N+](=O)[O-])c1	71
CCCCCCCCCCCC(=O)N(C)CC(=O)O	44 to 48
Cc1cncc(N2CCNCC2)n1	49 to 51
Clc1ccc(C(Cn2ccnc2)OCc2csc3c(Cl)cccc23)c(Cl)c1 (stereo not drawn)	146
CCCCCCCCC(CCCCCCCC)C(=O)O	38.5
N#Cc1ccc(CN2CCCCC2)cc1	38 to 40
OCCN(CCO)C(CO)(CO)CO	104
CN(C)C(CSS(=O)(=O)c1ccccc1)CSS(=O)(=O)c1ccccc1	83.5
c1cncc(-c2ccnc(-c3cccnc3)c2)c1	148
O=C(NCc1ccccc1)C(C(F)(F)F)C(F)(F)F	194
Nc1ccccc1COc1ccccc1	78
O=C(COc1ccccc1)c1ccc(O)cc1O	207 to 208
CCOc1ccc(CC#N)cc1	44 to 47
O=C1NC(=O)C(=Cc2ccc(Cl)cc2)C(=O)N1	243
NC(=S)c1ccc(OCC(F)(F)F)nc1	120 to 123

Compound	melting point [°C]
BrCc1ccccc1COc1ccccc1	53 to 59
CCCCCCC(C)CCCCCC	-37.2
FC(F)(F)C(Cl)=C(Cl)C(F)(F)F	-67.3
C1CCC(P(CP(C2CCCCC2)C2CCCCC2)C2CCCCC2)CC1	99
Nc1ccccc1-c1cc2ccccc2[nH]1	153
CCSCc1ccccc1OC(=O)NC	33.4
CCCCI	-103
CC12CCC(O)CC1=CCC1C2CCC2(C)C1CCC2(C)O (stereo not drawn)	206
N#Cc1ccc(C#N)c(OC(F)(F)F)c1	79 to 81
CCCCCCCCCCCCCCC(Br)C(=O)O (stereo not drawn)	52 to 56
Cc1ccc(N=Nc2cc(C(C)C)c(N=Nc3ccc(C)cc3)cc2C)cc1	140
O=C1c2ccccc2C(=O)C1c1ccc(Br)cc1	138
Cc1nc(-c2ccccc2)sc1C(=O)O	214 to 215
CC1(C)Nc2cccc3c(N=Nc4ccc(N=Nc5ccccc5)c5ccccc45)ccc(c23)N1	120 to 124
Oc1c(-c2ccccn2)n(N2CCCCC2)c2ccccc12	185
Nc1cc(N)nc(N)n1	250
NNc1ccc(S(=O)(=O)O)cc1	286
Clc1cc2c(cc1Cl)Oc1ccccc1O2	163
Cc1cccc(NC(=O)C(C(F)(F)F)C(F)(F)F)c1	175
Brc1c(Br)c(Br)c(Oc2ccccc2)c(Br)c1Br	200
Cc1ccc(-c2cccc(C)c2)cc1	14.5

Compound	melting point [°C]
CC(=O)c1ccc(-c2ccccc2OC(F)(F)F)o1	40 to 47
O=C(NCc1ccc(S(=O)(=O)Cl)s1)c1ccccc1	123 to 125
N#C/C(=N\Nc1c(Br)cc(Br)cc1Br)c1nc2ccccc2[nH]1	270
C=CC(=O)OCCN(CC)CC	-60
Nc1ccc(Cn2cncn2)cc1	124 to 126
CCCCCCC#CC(=O)O	-8
O=C1C=C(NCCCc2ccccc2)C(=O)c2ccccc21	116
Cc1nc(-c2cccc(C=O)c2)no1	98 to 99
Nc1cc([N+](=O)[O-])ccc1Br	139
CCCCCCCC=CC(=O)O	12
O=C(O)c1ccccc1C1c2ccc(O)cc2Oc2cc(O)ccc21	126
O=C1OC(=O)c2c(F)ccc(F)c21	217 to 221
O=C(O)CCc1ccccc1F	76 to 78
O=C=Nc1ccccc1	-31.3
Cc1ccc2nc(-c3ccc(N)cc3)sc2c1	195
O=C(/C=C/Nc1ccccc1)c1ccc2c(c1)CCCC2	175
Cc1cc(C#N)ccc1Br	53
COc1ccc(-n2c(=S)[nH]c(=O)c3cccnc32)cc1	261 to 263
c1ccc(-c2ccc(-c3nc4ccc(-c5ccccc5)cc4o3)cc2)cc1	199 to 201
ClC=C(Cl)C(Cl)=CCl	-4
Nc1cc(F)c(F)c(F)c1F	28

Compound	melting point [°C]
CC(=O)c1cccc(Cl)c1O	80 to 83
COc1ccc(N/N=C(\C#N)c2nc(-c3ccccc3)cs2)cc1	150
CCOC(=O)c1c(SC)nn(C(=O)NNc2ccccc2)c1N	205
C=C[Si](OCCOC)(OCCOC)OCCOC	-30
Nc1ccc(Oc2ccc(Br)cc2)nc1	107 to 109
O=Cc1c[nH]c2cc(Br)ccc12	202 to 203
CC(=O)Nc1ccccc1Br	99
Nc1cc(-c2ccccc2)no1	109
OCCN(CCO)c1nc(N2CCCCC2)c2nc(N(CCO)CCO)ncc2n1	158
COC(=O)c1cccc(C=O)c1	58
O=[N+]([O-])c1c(O)ncnc1O	300
O=C1NN=C(C(F)(F)F)C1=NNc1ccc(Cl)cc1	215
ClCc1csc(-c2cccs2)n1	52 to 56
O=[N+]([O-])c1cc(I)cc([N+](=O)[O-])c1	101
Nc1cccc(-n2cccc2)c1	43 to 44
NC1=C(c2ccccc2)C(=O)c2ccccc21	270 to 273
O=C1NC(=O)C(=NNc2ccc(Br)cc2)C(=O)N1	295
Brc1cncc(Br)c1	112
COC(=O)COc1ccc(Cl)cc1Cl	119

Results, then the compound that gave them:

melting point [°C]	Compound
108 to 110	O=C(OCC1CC1)c1cnc(Cl)nc1C(F)(F)F
171	CN(C)c1ccc(C(O)C2C(=O)N(c3ccccc3)N=C2C(F)(F)F)cc1 (stereo not drawn)
209	COc1ccccc1C1(C)CCc2oc3ccc(Br)cc3c2-c2oc(C)cc21 (stereo not drawn)
63 to 65	O=C(CN1CCNCC1)N1CCOCC1
242 to 244	Nc1ccc(C2=NNC(=O)CC2)cc1
121	CN(C)c1ccc(CCC2CCc3ccccc3N2C(=O)c2ccccc2)cc1 (stereo not drawn)
104 to 105	CCc1nc(C)c(C=O)[nH]1
109	CCCCCCCCCCCCN1c2ccccc2C(C)(C)C12C=Cc1cc([N+](=O)[O-])ccc1O2 (stereo not drawn)
138 to 143	O=C1c2ccccc2C(=O)N1CC1CNCCO1 (stereo not drawn)
154	Cc1c(C)c(C)c2c(c1C)CCC2=O
248 to 255	CC(C)C(C)(N)P(=O)(O)O (stereo not drawn)
151	O=C1CCC2CC1CCC2=O
177	O=C1CCC(=O)N1Br
59	CN1C(=O)COc2ccccc21
61	CC1=C(C#N)C(c2cccc([N+](=O)[O-])c2)C(C(=O)OC(C)(C)C)=C(C)N1 (stereo not drawn)
38	CC1C(=O)C2(C)CCC1C2(C)C (stereo not drawn)
204 to 208	CC(=O)NC1C(Oc2ccccc2[N+](=O)[O-])OC(CO)C(O)C1O (stereo not drawn)
68 to 69	Cn1cnc(C=O)c1
130	Cc1ccc(NN=C2C(=O)OC(C)(C)OC2=O)cc1
286 to 293	O=C(O)c1ccc(CN2CCCCC2)cc1
196	COC(=N)C1=CC(O)C(O)C(CO)O1 (stereo not drawn)
166	CC(C)=C1C(=O)NN(c2ccccc2)C1=O
282	CC1C(=O)C23C(O)CC4C(C)(C)CCC(O)C4(C)C2C(O)CC1C3O (stereo not drawn)
68	O=[N+]([O-])c1ccc2c(c1)NCC2
139 to 141	CCOc1cc([N+](=O)[O-])c(OCC)cc1N1CCOCC1
70	COC(=O)c1ccc(=O)oc1

melting point [°C]	Compound
-66.9	CC1CCCC(C)C1C (stereo not drawn)
206	COC(=O)c1ccc(C(N)=O)cc1
64 to 65	CCOC(=O)Nc1ccc(C)cc1[N+](=O)[O-]
187 to 190	CN1CCN(c2cccc(C(=O)O)c2)CC1
143 to 146	CSc1ncccc1C(=O)NC(CC(C)C)C(=O)O (stereo not drawn)
141	Cc1ccc(OCC(=O)O)c(C)c1
-1	O=C1CCCCCO1
163	Cc1ccc(OCC(=O)O)cc1C
86	Cc1cccc2c1C(=O)OC2
159	O=C(O)CC1CC(=O)OC1C(=O)O (stereo not drawn)
82	CC1=C(C)C(O)OC1=O (stereo not drawn)
69.5	O=C(O)C1(C(F)(F)F)CCCCC1
138	CNC(=O)Sc1ccc(OS(C)(=O)=O)cc1
49	O=C(c1ccccc1)N1CCCCC1
65	CC(=O)n1cc(C)c2ccccc21
65 to 66	CCOC(=O)c1sc(Br)nc1C
67 to 69	C[Si](C)(C)N([Si](C)(C)C)[Si](C)(C)C
167	CC(C)Nc1nc(Cl)nc(NC2CC2)n1
93 to 94	CN1CCCN(c2ccc(C#N)cc2)CC1
184	O=C1OC(c2ccc([N+](=O)[O-])cc2)Cc2ccccc21 (stereo not drawn)
75	CC(C)(O)C12CC3CC(CC(C3)C1)C2
-73	CCCC(=O)OC(=O)CCC
7.7	Cc1ccc(C)[nH]1
141 to 142	CCO[C@H]1OC(C(N)=O)=CC[C@H]1Br
75	CC1=C(C(=O)OC(C)C)C(c2ccc([N+](=O)[O-])cc2)NC(=S)N1 (stereo not drawn)
